In one assay the target is mTOR (Homo sapiens, UniProt P42345). Particulars: cited from earlier work.
The target in another assay is p110γ (PI3Kγ) (Homo sapiens, UniProt P48736). The settings on record: cited from earlier work.
The next assay addresses p110β (PI3Kβ) (Homo sapiens, UniProt P42338). Particulars: cited from earlier work.
The next assay relates to PI3K/mTOR. Particulars: cited from earlier work.
The target in a further assay is FKBP12 (Homo sapiens, UniProt P62942). Particulars: cited from earlier work.
Assay [1] has as its system MDA-MB-231 nude mice-derived xenografts. The assay can be described thus: MDA-MB-231 xenografts in nude mice. The settings on record: Compound (1-1) 50 mg/kg BID po; everolimus 2 mg/kg 3 time a week ip; 4 weeks treatment. The assay is classed as in vivo. How it is done:
In vivo assays were performed in 8-week-old female MDA-MB-231 nude mice-derived xenografts. 10×10^6 cells were injected, when tumor volume reached 100 mm^3, mice were randomized to 4 groups (n=9): 1) vehicle; 2) 50 mg/kg Compound (1-1) (BID, po); 3) 2 mg/kg of everolimus (3 time a week, ip); 4) combination Compound (1-1) and everolimus; 4 weeks treatment.
Symbols with • indicate significant differences between treatment vs. vehicle-treated mice (p<0.05). * indicates a significant difference in the tumor mass between the combination treated animals and the two single agent groups (*p<0.05, **p<0.01 and ***p<0.001). Results represent the mean±SEM (during the treatment period, n=9). Variation of animal body weight during treatment is illustrated in FIG. 18B. […] The T/C ratio was 39% after 10 days of combination treatment, with an optimal value of 21% on day 23. Compound (1-1) can be used for the treatment of TNBC, either alone or in combination with mTOR inhibitors.

The next assay has as its system MDA-MB-231. The settings on record: cited from earlier work.
The subject of the next assay is HCC1937. The settings on record: cited from earlier work.
The subject of assay [2] is Akt phosphorylation on T308. The settings on record: cited from earlier work.
For assay [3], the system named is Akt phosphorylation on S473. Particulars: cited from earlier work.

Results on seven molecules are retold here after patent US9968619B2, “Method of treating triple-negative breast cancer using thienotriazolodiazepine compounds” (ONCOETHIX GMBH, priority 2014, dated 2018).

Sequence of p110β (PI3Kβ) (P42338 whole entry, species assumed): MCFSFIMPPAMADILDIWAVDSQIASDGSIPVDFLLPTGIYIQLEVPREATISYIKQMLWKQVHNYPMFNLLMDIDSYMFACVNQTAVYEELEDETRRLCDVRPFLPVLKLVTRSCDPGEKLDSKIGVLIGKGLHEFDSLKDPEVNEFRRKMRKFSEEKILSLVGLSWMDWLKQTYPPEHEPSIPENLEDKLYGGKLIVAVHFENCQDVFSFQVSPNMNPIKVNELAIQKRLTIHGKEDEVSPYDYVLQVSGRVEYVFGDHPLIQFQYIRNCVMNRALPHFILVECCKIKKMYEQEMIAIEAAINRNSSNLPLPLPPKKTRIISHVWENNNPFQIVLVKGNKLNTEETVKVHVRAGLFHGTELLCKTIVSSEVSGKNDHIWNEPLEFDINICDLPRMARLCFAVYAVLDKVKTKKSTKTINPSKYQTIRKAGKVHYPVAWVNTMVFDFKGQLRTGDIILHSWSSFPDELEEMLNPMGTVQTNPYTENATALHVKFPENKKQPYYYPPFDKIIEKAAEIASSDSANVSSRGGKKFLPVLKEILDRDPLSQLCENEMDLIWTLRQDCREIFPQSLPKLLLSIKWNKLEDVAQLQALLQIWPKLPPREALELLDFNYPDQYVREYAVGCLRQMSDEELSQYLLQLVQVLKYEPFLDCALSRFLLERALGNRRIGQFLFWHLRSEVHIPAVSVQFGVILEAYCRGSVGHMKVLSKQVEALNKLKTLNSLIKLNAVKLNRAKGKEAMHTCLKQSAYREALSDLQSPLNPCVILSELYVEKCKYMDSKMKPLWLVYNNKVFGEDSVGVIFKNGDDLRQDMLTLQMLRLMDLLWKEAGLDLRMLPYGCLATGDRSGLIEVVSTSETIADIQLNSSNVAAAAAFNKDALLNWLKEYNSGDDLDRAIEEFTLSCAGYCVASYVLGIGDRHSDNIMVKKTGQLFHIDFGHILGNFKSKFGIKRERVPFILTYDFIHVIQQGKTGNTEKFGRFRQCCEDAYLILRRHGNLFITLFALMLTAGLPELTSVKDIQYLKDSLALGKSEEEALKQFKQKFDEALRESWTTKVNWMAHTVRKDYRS
Sequence of p110β (PI3Kβ) (P27986 whole entry partner, species assumed): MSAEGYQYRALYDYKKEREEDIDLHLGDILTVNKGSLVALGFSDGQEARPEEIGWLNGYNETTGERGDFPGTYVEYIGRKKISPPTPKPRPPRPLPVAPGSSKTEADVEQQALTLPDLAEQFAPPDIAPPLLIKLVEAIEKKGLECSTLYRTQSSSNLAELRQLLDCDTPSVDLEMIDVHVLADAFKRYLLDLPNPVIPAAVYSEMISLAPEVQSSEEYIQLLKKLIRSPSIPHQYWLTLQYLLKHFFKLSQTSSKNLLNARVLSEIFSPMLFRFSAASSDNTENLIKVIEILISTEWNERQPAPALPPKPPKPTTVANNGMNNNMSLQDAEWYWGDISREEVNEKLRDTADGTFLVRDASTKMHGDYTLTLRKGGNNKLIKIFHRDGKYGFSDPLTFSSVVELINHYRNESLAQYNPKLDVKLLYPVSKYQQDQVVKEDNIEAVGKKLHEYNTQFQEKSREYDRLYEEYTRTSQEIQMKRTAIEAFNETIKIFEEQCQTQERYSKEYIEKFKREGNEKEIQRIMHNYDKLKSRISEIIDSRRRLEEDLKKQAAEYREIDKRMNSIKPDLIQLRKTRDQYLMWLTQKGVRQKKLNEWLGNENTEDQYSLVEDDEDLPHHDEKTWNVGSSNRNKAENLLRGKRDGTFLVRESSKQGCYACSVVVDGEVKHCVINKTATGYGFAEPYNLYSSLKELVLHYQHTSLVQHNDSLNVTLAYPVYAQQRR
Sequence of p110γ (PI3Kγ) (P48736 whole entry, species assumed): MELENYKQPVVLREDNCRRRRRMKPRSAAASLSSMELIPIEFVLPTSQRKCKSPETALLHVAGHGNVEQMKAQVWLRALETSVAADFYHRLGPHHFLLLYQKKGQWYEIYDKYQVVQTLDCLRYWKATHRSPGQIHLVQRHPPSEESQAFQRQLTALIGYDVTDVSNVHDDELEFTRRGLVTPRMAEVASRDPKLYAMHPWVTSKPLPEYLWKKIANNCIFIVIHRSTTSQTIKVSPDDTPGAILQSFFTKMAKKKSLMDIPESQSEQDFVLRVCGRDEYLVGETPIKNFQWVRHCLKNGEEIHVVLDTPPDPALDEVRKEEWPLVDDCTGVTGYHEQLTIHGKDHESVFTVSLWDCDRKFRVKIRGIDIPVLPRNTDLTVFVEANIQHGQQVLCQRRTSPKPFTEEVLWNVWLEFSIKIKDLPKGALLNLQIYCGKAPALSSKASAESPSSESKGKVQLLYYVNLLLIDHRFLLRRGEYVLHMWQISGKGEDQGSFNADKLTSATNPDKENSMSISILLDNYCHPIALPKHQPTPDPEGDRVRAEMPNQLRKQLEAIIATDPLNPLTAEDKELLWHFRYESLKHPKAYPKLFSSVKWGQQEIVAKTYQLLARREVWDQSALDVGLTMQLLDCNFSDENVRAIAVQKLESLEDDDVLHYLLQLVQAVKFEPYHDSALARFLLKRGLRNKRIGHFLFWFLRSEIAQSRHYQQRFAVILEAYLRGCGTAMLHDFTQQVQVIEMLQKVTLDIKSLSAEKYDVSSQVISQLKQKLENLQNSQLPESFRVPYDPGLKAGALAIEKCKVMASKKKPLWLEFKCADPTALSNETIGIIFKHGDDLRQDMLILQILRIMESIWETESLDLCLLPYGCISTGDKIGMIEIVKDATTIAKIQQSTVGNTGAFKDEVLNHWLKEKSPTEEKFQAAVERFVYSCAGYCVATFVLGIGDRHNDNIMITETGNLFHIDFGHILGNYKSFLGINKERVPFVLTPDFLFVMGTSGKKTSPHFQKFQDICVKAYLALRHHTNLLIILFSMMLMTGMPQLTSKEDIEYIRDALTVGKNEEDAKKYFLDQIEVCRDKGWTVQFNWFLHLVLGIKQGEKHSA
Sequence of FKBP12 (P62942 whole entry, species assumed): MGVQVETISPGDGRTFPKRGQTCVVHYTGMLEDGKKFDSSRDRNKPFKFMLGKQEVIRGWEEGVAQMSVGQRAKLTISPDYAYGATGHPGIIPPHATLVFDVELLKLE

In general, IC50 refers to the concentration needed to halve the response being measured. Regarding `CO[C@H]1CC2CC[C@@H](C)[C@@](O)(O2)C(=O)C(=O)N2CCCC[C@H]2C(=O)O[C@H]([C@H](C)C[C@@H]2CCC(OP(C)(C)=O)[C@H](OC)C2)CC(=O)[C@H](C)/C=C(\C)[C@@H](O)[C@@H](OC)C(=O)[C@H](C)C[C@H](C)/C=C/C=C/C=C/1C` (some centres unmarked) [Deforolimus, 42-(Dimethylphosphinate) rapamycin], at mTOR, the half-maximal inhibitory concentration (IC50) is 0.2 nM. The Ki is the dissociation constant of the complex between target and ligand, obtained from inhibition or displacement. With GSK2126458, the Ki at p110γ (PI3Kγ) was 0.024 nM; at p110β (PI3Kβ), 0.13 nM. For the molecule `COc1ccc(-c2ccc3ncc4c(c3c2)n(-c2ccc(N3CCNCC3)c(C(F)(F)F)c2)c(=O)n4C)cn1` [NVP-BGT226], in the assay on PI3K/mTOR, the IC50 is 1 nM.

For `CO[C@H]1C[C@@H]2CC[C@@H](C)[C@@](O)(O2)C(=O)C(=O)N2CCCC[C@H]2C(=O)O[C@H]([C@H](C)C[C@@H]2CC[C@@H](OCCO)[C@H](OC)C2)CC(=O)[C@H](C)/C=C(\C)[C@@H](O)[C@@H](OC)C(=O)[C@H](C)C[C@H](C)/C=C/C=C/C=C/1C` [Everolimus, reference compound], the IC50 on FKBP12 was 1.6 to 2.4 nM. Moreover, the “tumor mass with respect to vehicle-treated mice” value in assay [1] is listed as “not active”. On to `CC(=O)O[C@@]12CO[C@@H]1C[C@H](O)[C@@]1(C)C(=O)[C@H](O)C3=C(C)[C@@H](OC(=O)[C@H](O)[C@@H](NC(=O)OC(C)(C)C)c4ccccc4)C[C@@](O)([C@@H](OC(=O)c4ccccc4)[C@H]21)C3(C)C` [Docetaxel], for which the IC50 is 3 nM in the assay on MDA-MB-231 and 7.2 nM with HCC1937. In the case of `COc1ccc(-c2cc3c(C)nc(N)nc3n([C@H]3CC[C@H](OCCO)CC3)c2=O)cn1` [PF-04691502], the figures for the IC50 in assay [2] and in [3] were 7.5 nM and 3.8 nM, respectively. For the molecule `COc1cc(Nc2nc3ccccc3nc2NS(=O)(=O)c2ccc(NC(=O)c3ccc(C)c(OC)c3)cc2)cc(OC)c1` [XL765], on mTOR, the IC50 is 157 nM.
